The source of these data is article doi:10.1101/2025.04.10.648262, “Time-resolved phenotyping at subcellular resolution reveals shared principles and key trade-offs across antimicrobial peptide activities” (bioRxiv, 2026).

This experiment relates to E. coli strain (CJW7845). Kind of experiment: Time-lapse single-cell phenotyping of inner/outer membrane permeabilization to proteins and growth arrest in microwells. It counts as cell-based, Escherichia coli. Also on record: key to Class (timing of growth arrest relative to IM permeabilization to proteins): Class I AMPs and PMs cause growth arrest predominantly associated with inner membrane (IM) permeabilization; class II compounds inhibit growth without substantial IM permeabilization. As to conditions: for Class (timing of growth arrest relative to IM permeabilization to proteins) / Type (relative timing of OM and IM permeabilization) / OM-permeabilized cells among IM-permeabilized cells: 2X MIC; for Class (timing of growth arrest relative to IM permeabilization to proteins) / Type (relative timing of OM and IM permeabilization): CJW7845, M9gluCAAT, 37°C, time-lapse microscopy; for OM-permeabilized cells among IM-permeabilized cells: CJW7845, during the experiment; for OM-permeabilized cells (out of all IM-permeabilized cells): 10X MIC, CJW7845. How it is done: For experiments with PDMS microwells, cells were allowed to grow for ~30 min in the temperature-controlled enclosure prior to imaging. A 10X concentrated AMP solution was spiked in (at 1/10 the volume of the well) and mixed well by pipetting after ~20 min from the start of the image acquisition, without interrupting the timelapse sequence. When the uptake of SYTOX Green was monitored, SYTOX Green was included in the AMP solution and spiked in during the experiment to obtain a final concentration of SYTOX Green of 50 nM in the well. This allowed us to monitor healthy cell growth prior to AMP treatment, to rapidly set the desired AMP (or SYTOX Green) concentration from one frame to the next (unlike for flow-controlled injection systems), and to resolve the AMP-induced phenotype in real time. The current design allows for testing up to four independent conditions in parallel.
To analyse the single-cell experiments in microwells, OmniSegger software (https://github.com/tlo-bot/omnisegger), which combines SuperSegger MATLAB-based suite ([Stylianidou et al., 2016]) for cell analysis with Omnipose segmentation ([Cutler et al., 2022]), was used to first process the microscopy images by performing drift correction, cell segmentation, and cell linking. Given that AMP-treated cells can display extreme phenotypes, such as exceedingly bright and/or heterogeneous phase contrast signal (likely a result of the widely changing intracellular density upon AMP treatment) and that the software’s pre-trained model bact_phase_omni ([Cutler et al, 2022]) tended to split cells before cell division was completed, a new Omnipose model was trained from scratch starting from bact_phase_omni-generated masks that were further corrected and curated using custom-made Python scripts (screening_good_bad.py and generate_training_dataset.py). Details on the Omnipose model retraining can be found in a previous publication ([Thappeta et al., 2025]). The final model (omnipose_phase_microwells_model) and corresponding training datasets are available at https://github.com/JacobsWagnerLab/published/tree/master/Fragasso_et_al_2025 and BioImage Archive (accession number: S-BIAD1823), respectively.
MATLAB files of the linked cell trajectories output from OmniSegger were then imported, background subtracted using background_subtraction.py, which was adapted from a previous study ([Papagiannakis et al., 2025]), and converted to Python data structures (import_processing_code.py), from which cell features such as cell area, nucleoid area, mean fluorescence intensity, etc., were extracted for each cell at each frame. The exported dataframes were further processed to estimate instantaneous growth rates and were run through a series of functions to perform curation based on cell areas and instantaneous growth rates over time (post_processing_curation_functions.py). […] Represented data points were pooled from multiple replicates.
Analysis of strain CJW7845 proceeded by extracting the timings of permeabilization of the outer and inner membranes based on the mean fluorescence intensities of mScarlet-I and/or mTagBFP2 fluorescent proteins (using function get_permeabilization_time.py), cell growth arrest, and the initiation time of growth inhibition. To obtain accurate timings underlying membrane permeabilization events, information from both the signal intensity itself as well as its derivative were combined, which enabled us to accurately resolve the relevant changes in fluorescent protein signal beyond the intrinsic high-frequency noise and low-frequency photobleaching. Inner membrane permeabilization to proteins can result in two possible phenotypes when simultaneously monitoring freely diffusing periplasmic and cytoplasmic probes, depending on which membrane (outer or inner) becomes permeabilized first. When the outer membrane is first permeabilized, mScarlet-I signal is lost first, followed by mTagBFP2 when the inner membrane becomes also permeabilized. […]

Each structure is given as a SMILES string. Bridge positions count the residues as written; N and C are the ends. Square brackets hold non-standard residues; d marks the D form. Peptide text beside a SMILES is read from it. Nspe = C[C@H](NCC(=O)O)c1ccccc1; Nlys = NCCCCNCC(=O)O

`C[C@@H](c1ccccc1)N(CC(N)=O)C(=O)CN(C(=O)CN(CCCCN)C(=O)CN(C(=O)CN(C(=O)CN(CCCCN)C(=O)CN(C(=O)CN(C(=O)CN(CCCCN)C(=O)CN(C(=O)CN(C(=O)CNCCCCN)[C@@H](C)c1ccccc1)[C@@H](C)c1ccccc1)[C@@H](C)c1ccccc1)[C@@H](C)c1ccccc1)[C@@H](C)c1ccccc1)[C@@H](C)c1ccccc1)[C@@H](C)c1ccccc1` [TM1] (H-[Nlys][Nspe][Nspe][Nlys][Nspe][Nspe][Nlys][Nspe][Nspe][Nlys][Nspe][Nspe]-NH2): the “Class (timing of growth arrest relative to IM permeabilization to proteins)” value was “I”; the “Type (relative timing of OM and IM permeabilization)” value was “B (type B AMPs and PMs permeabilize the IM well before (>10 min) the OM)”; the “OM-permeabilized cells among IM-permeabilized cells” value was 24/97; the “OM-permeabilized cells (out of all IM-permeabilized cells)” value is reported as 77/171.

On to `CC[C@@H](C)[C@@H](NC(=O)[C@@H](C)NC(=O)[C@@H](CCCNC(=N)N)NC(=O)[C@@H](Cc1c[nH]c2ccccc12)NC(=O)[C@@H](CCC(N)=O)NC(=O)[C@H](N)C(C)C)C(=O)N[C@H](CCCNC(=N)N)C(=O)N[C@@H](C(=O)N[C@H](CCCNC(=N)N)C(=O)N[C@@H](C(=O)N[C@@H](C(=O)N[C@H](CCCNC(=N)N)C(N)=O)[C@H](C)CC)C(C)C)C(C)C` [DJK-5] (H-[dV][dQ][dW][dR][dA][dI][dR][dV][dR][dV][dI][dR]-NH2; N-terminus and C-terminus assumed), for which the “Class (timing of growth arrest relative to IM permeabilization to proteins)” value is “II”; the “Type (relative timing of OM and IM permeabilization)” value is “B (type B AMPs and PMs permeabilize the IM well before (>10 min) the OM)”; the “OM-permeabilized cells among IM-permeabilized cells” value is 81/151. For the same compound, the “Cells in which the IM became permeabilized” value (concentrations close to the MIC (2X MIC)) was more than 60%.

Regarding `CC[C@H](C)[C@@H]1NC(=O)CNC(=O)[C@H](CCCNC(=N)N)NC(=O)[C@H](Cc2ccc(O)cc2)NC(=O)[C@@H]2CSSC[C@H](NC1=O)C(=O)N[C@@H](Cc1ccc(O)cc1)C(=O)N[C@@H](CCCNC(=N)N)C(=O)N[C@@H](CCCNC(=N)N)C(=O)N[C@H](C(=O)N[C@@H](CCCNC(=N)N)C(N)=O)CSSC[C@H](NC(=O)[C@H](Cc1c[nH]c3ccccc13)NC(=O)[C@@H](N)CCCCN)C(=O)N[C@@H](Cc1ccccc1)C(=O)N[C@@H](CCCNC(=N)N)C(=O)N[C@@H](C(C)C)C(=O)N2` [Tac1, tachyplesin-1] (H-KWCFRVCYRGICYRRCR-NH2; disulfide 3-16, 7-12 (inferred); N-terminus assumed), the “Class (timing of growth arrest relative to IM permeabilization to proteins)” value is reported as “I”; the “Type (relative timing of OM and IM permeabilization)” value is given as “A (type A AMPs predominantly permeabilize the outer membrane (OM) within 10 min of the IM)”; the “OM-permeabilized cells among IM-permeabilized cells” value was 273/273; the “OM-permeabilized cells (out of all IM-permeabilized cells)” value is given as 82/128.
